Converted amounts (≈) assume the structure as drawn. “And” between values parts separate entries of the source, which are not always exact repeats. Identical values can stand only once. Blank lines part the entries; values can stand above or below the molecule they belong to.
Columns and labels:
Assay in all cases: ≥ marks a high value that may be exact or a test limit, other limits are often not marked, values filed in µg/mL are converted to µM
Klebsiella pneumoniae = test system: Klebsiella pneumoniae
[1] = test system: Salmonella enterica subsp. enterica serovar Typhimurium ATCC 14028
Pseudomonas aeruginosa = test system: Pseudomonas aeruginosa
[2] = test system: Staphylococcus aureus LT1334
Bacillus megaterium Bm11 = test system: Bacillus megaterium Bm11
[3] = test system: Staphylococcus aureus 710A
Escherichia coli ML-35 = test system: Escherichia coli ML-35
Citrobacter freundii = test system: Citrobacter freundii
[4] = test system: Pseudomonas aeruginosa ATCC 27853
[5] = test system: Staphylococcus epidermidis LT1324
Micrococcus luteus = test system: Micrococcus luteus
Candida albicans = test system: Candida albicans
[6] = test system: Staphylococcus aureus LT1338
Staphylococcus aureus = test system: Staphylococcus aureus
Enterococcus faecium = test system: Enterococcus faecium
Escherichia coli = test system: Escherichia coli
[7] = test system: Stenotrophomonas maltophilia
[8] = test system: Staphylococcus haemolyticus
[9] = test system: Staphylococcus aureus ATCC 29213
[10] = test system: Listeria monocytogenes ATCC BAA-751
[11] = test system: Pseudomonas aeruginosa ATCC 9027
[12] = test system: Staphylococcus aureus ATCC 25923
[13] = test system: Bacillus cereus ATCC 11778
[14] = test system: Escherichia coli ATCC 25922
[15] = test system: Staphylococcus aureus ATCC 43300
[16] = test system: Escherichia coli ATCC 25726
[17] = test system: Cutibacterium acnes ATCC 32548
[18] = test system: Cutibacterium acnes ATCC 33257
[19] = test system: Cutibacterium acnes ATCC 15725
[20] = test system: Cutibacterium acnes ATCC 29903
[21] = test system: Cutibacterium acnes ATCC 11828
Acinetobacter baumannii = test system: Acinetobacter baumannii
[22] = test system: Cutibacterium acnes ATCC 31766
[23] = test system: Candida albicans ATCC 90028
[24] = test system: Cutibacterium acnes ATCC 18380
[25] = test system: Cutibacterium acnes ATCC 50247
Escherichia coli W3110 = test system: Escherichia coli W3110
[26] = test system: Streptococcus sobrinus ATCC 33478
[27] = test system: Streptococcus mutans UA159
Enterococcus faecalis = test system: Enterococcus faecalis
[28] = test system: Streptococcus sanguinis NY101
[29] = test system: Pseudomonas aeruginosa PAK
Streptococcus agalactiae = test system: Streptococcus agalactiae
[30] = test system: Escherichia coli O18:K1:H7 Bort
Serratia marcescens = test system: Serratia marcescens

SMILES: CC[C@H](C)[C@H](NC(=O)CNC(=O)[C@H](CCCCN)NC(=O)[C@@H](NC(=O)[C@H](CC(C)C)NC(=O)[C@H](CO)NC(=O)CNC(=O)[C@H](CC(C)C)NC(=O)CNC(=O)[C@H](C)NC(=O)[C@H](CCCCN)NC(=O)[C@H](Cc1ccccc1)NC(=O)[C@@H](NC(=O)[C@H](CCC(=O)O)NC(=O)[C@H](CCCCN)NC(=O)[C@H](CC(C)C)NC(=O)CN)[C@@H](C)CC)C(C)C)C(=O)N[C@@H](C)C(=O)N[C@@H](C)C(=O)N[C@@H](Cc1cnc[nH]1)C(=O)N[C@H](C(=O)N[C@@H](C)C(=O)N[C@@H](CO)C(=O)O)C(C)C [GLKEIFKAGLGSLVKGIAAHVAS]
MIC [1]: 62.5 µM (≈ 142 µg/mL)
MIC [9]: > 250 µM
MIC [10]: ≥ 125 µM
MIC [11]: 31.3 µM (≈ 70.9 µg/mL)
MIC [12]: 250 µM (≈ 567 µg/mL)
MIC [13]: ≥ 250 µM
MIC [14]: 15.2 µM (≈ 34.5 µg/mL)
MIC [15]: > 250 µM

SMILES: CC[C@H](C)[C@H](NC(=O)[C@H](CCCCN)NC(=O)[C@H](CC(C)C)NC(=O)[C@H](CC(C)C)NC(=O)[C@@H]1CCCN1C(=O)[C@H](CCCCN)NC(=O)[C@H](CC(C)C)NC(=O)[C@H](CC(C)C)NC(=O)CN)C(=O)N[C@@H](C)C(=O)N[C@@H](C)C(=O)N[C@@H](CCCCN)C(=O)N[C@H](C(=O)NCC(=O)N[C@@H](CO)C(=O)N[C@@H](CC(N)=O)C(=O)N[C@@H](CC(C)C)C(=O)N[C@@H](CC(C)C)C(N)=O)C(C)C [GLLKPLLKIAAKVGSNLL]
MIC [16]: 12.5 µM (≈ 23.1 µg/mL)
MIC [17]: 6 µM (≈ 11.1 µg/mL)
MIC [18]: 6 µM (≈ 11.1 µg/mL)
MIC [19]: 6 µM (≈ 11.1 µg/mL)
MIC [20]: 25 µM (≈ 46.2 µg/mL)
MIC [21]: 3 µM (≈ 5.54 µg/mL)
MIC (Acinetobacter baumannii): 2.23 µM (≈ 4.11 µg/mL)
MIC [12]: 6 µM (≈ 11.1 µg/mL)
MIC [22]: 12.5 µM (≈ 23.1 µg/mL)
MIC [23]: 25 µM (≈ 46.2 µg/mL)
MIC [24]: 25 µM (≈ 46.2 µg/mL)
MIC [25]: 12.5 µM (≈ 23.1 µg/mL)

SMILES: CC[C@H](C)[C@H](NC(=O)[C@H](Cc1ccccc1)NC(=O)[C@H](Cc1cnc[nH]1)NC(=O)[C@H](CCCCN)NC(=O)[C@@H](NC(=O)[C@H](Cc1ccccc1)NC(=O)[C@@H]1CCCN1C(=O)[C@H](CO)NC(=O)[C@@H]1CCCN1C(=O)[C@H](CO)NC(=O)[C@@H]1CCCN1C(=O)[C@H](Cc1ccccc1)NC(=O)[C@H](Cc1cnc[nH]1)NC(=O)[C@H](CC(C)C)NC(=O)[C@H](Cc1cnc[nH]1)NC(=O)[C@H](Cc1ccccc1)NC(=O)[C@H](Cc1cnc[nH]1)NC(=O)[C@@H](N)Cc1ccccc1)[C@@H](C)CC)C(=O)N[C@@H](Cc1cnc[nH]1)C(=O)N[C@@H](CCCN=C(N)N)C(=O)N[C@@H](Cc1ccccc1)C(N)=O [FHFHLHFPSPSPFIKHFIHRF]
MIC (Escherichia coli W3110): 23.4 µM (≈ 62.5 µg/mL)
MIC [26]: ≥ 46.7 µM
MIC [27]: 12 µM (≈ 32 µg/mL)
MIC (Enterococcus faecalis): ≥ 93.4 µM
MIC [28]: ≥ 46.7 µM
MIC (Staphylococcus aureus): > 187 µM
MIC [29]: ≥ 46.7 µM

More lines, main results first:

MIC (Klebsiella pneumoniae): 1 µM (≈ 2.22 µg/mL)
MIC [1]: 5.66 µM (≈ 12.6 µg/mL)
MIC (Pseudomonas aeruginosa): 2 µM (≈ 4.44 µg/mL)
MIC [2]: 3 µM (≈ 6.67 µg/mL)
MIC (Bacillus megaterium Bm11): 2 µM (≈ 4.44 µg/mL)
MIC [3]: 5.66 µM (≈ 12.6 µg/mL)
MIC (Escherichia coli ML-35): 1 µM (≈ 2.22 µg/mL)
MIC (Citrobacter freundii): 2 µM (≈ 4.44 µg/mL)
MIC [4]: 4 µM (≈ 8.89 µg/mL)
MIC [5]: 1.5 µM (≈ 3.33 µg/mL)
MIC (Micrococcus luteus): 1 µM (≈ 2.22 µg/mL)
MIC (Candida albicans): > 4 µM
MIC [6]: 4 µM (≈ 8.89 µg/mL)
MIC (Staphylococcus aureus): 2 µM and 2.45 µM
MIC (Enterococcus faecium): 1.41 µM (≈ 3.14 µg/mL)
MIC (Escherichia coli): 1.41 µM (≈ 3.14 µg/mL)
MIC [7]: 1.22 µM (≈ 2.72 µg/mL)
SMILES: CC[C@H](C)[C@H](NC(=O)[C@@H](NC(=O)[C@H](CCCN=C(N)N)NC(=O)[C@H](C)NC(=O)[C@H](CC(C)C)NC(=O)[C@H](CCCCN)NC(=O)[C@H](CCCN=C(N)N)NC(=O)[C@H](C)NC(=O)[C@H](CC(C)C)NC(=O)[C@H](CCCN=C(N)N)NC(=O)CNC(=O)[C@H](Cc1ccccc1)NC(=O)[C@H](CCCCN)NC(=O)[C@H](CO)NC(=O)[C@H](CC(C)C)NC(=O)[C@H](CC(C)C)NC(=O)CN)C(C)C)C(=O)N1CCC[C@H]1C(=O)N[C@@H](CCCCN)C(=O)N[C@H](C(N)=O)C(C)C [GLLSKFGRLARKLARVIPKV]
MIC [8]: 1.5 µM (≈ 3.33 µg/mL)

MIC (Streptococcus agalactiae): 4 µM (≈ 8.6 µg/mL)
MIC [30]: 2 µM (≈ 4.3 µg/mL)
MIC (Serratia marcescens): 16 µM (≈ 34.4 µg/mL)
MIC [4]: 8 µM (≈ 17.2 µg/mL)
MIC (Staphylococcus aureus): 8 µM (≈ 17.2 µg/mL)
MIC (Enterococcus faecium): 8 µM (≈ 17.2 µg/mL)
SMILES: CC[C@H](C)[C@H](N)C(=O)N[C@@H](CC(C)C)C(=O)N[C@@H](CCCN=C(N)N)C(=O)N[C@@H](C)C(=O)N[C@@H](Cc1c[nH]c2ccccc12)C(=O)N[C@@H](CCCCN)C(=O)N[C@@H](CCCCN)C(=O)N[C@@H](Cc1ccc(O)cc1)C(=O)NCC(=O)N1CCC[C@H]1C(=O)N[C@H](C(=O)N[C@H](C(=O)N[C@H](C(=O)N1CCC[C@H]1C(=O)N[C@H](C(=O)N[C@H](C(=O)N[C@@H](CCCN=C(N)N)C(=O)N[C@H](C(N)=O)[C@@H](C)CC)[C@@H](C)CC)[C@@H](C)CC)C(C)C)[C@@H](C)CC)[C@@H](C)CC [ILRAWKKYGPIIVPIIRI]

From DBAASP
